Data set [1] has as its system spinal nerve ligation neuropathic pain model. As to the kind of experiment: Tactile allodynia in SNL neuropathic pain model (von Frey). It counts as in vivo, rat. Conditions: for effect of antagonist alone on paw withdrawal threshold: 5 mg/kg i.p. alone. On the procedure:
Adult, male Sprague Dawley (Harlan Sprague Dawley, Indianapolis, Ind.) rats weighing 120-150 gm were used in experimental procedures approved by the Animal Care and Use Committee of the M. D. Anderson Cancer Center, University of Texas. Animals were housed three per cage on a 12/12 hr light/dark cycle with water and food pellets available ad libitum.
All surgical procedures were performed under deep isoflurane anesthesia in 100% 02. The spinal nerve ligation (SNL) was performed as described previously. Kim, S. H., et al., An Experimental Model for Peripheral Neuropathy Produced by Segmental Spinal Nerve Ligation in the Rat, Pain, 1992, 50:355-63. Briefly, a midline incision above the lumbar spine exposed the left L6 transverse process. The process was then removed, the left L5 and L6 spinal nerves were isolated, and both nerves were tightly ligated with 6-0 silk. Prophylactic antibiotic (norfloxacin 5 mg/kg subcutaneously) and analgesic (buprenorphine, 0.2-0.5 mg/kg, or morphine, 2.5 mg/kg, given subcutaneously) were administered once daily for 3 days. All the experiments were conducted 10-14 days after spinal nerve ligation.
(§1) Rats were placed in a compartment with a wire mesh bottom and allowed to acclimate for a minimum of 30 min before testing. Mechanical sensitivity was assessed using a series of Von Frey filaments with logarithmic incremental stiffness (0.41, 0.70, 1.20, 2.00, 3.63, 5.50, 8.50, and 15.1 g) (Stoelting, Wood Dale, Ill.) as previously described, and 50% probability withdrawal thresholds were calculated with the up-down method. Chaplan, S. R., et al., Quantitative Assessment of Tactile Allodynia in the Rat Paw, J. Neurosci. Methods, 1994, 53:55-63; Dixon, W., The Up-and-Down Method for Small Samples, J. Am. Stat. Assoc., 1965, 60:967-78. In brief, beginning with the 2.0-g probe, filaments were applied to the plantar surface of a hind paw for 6-8 s, in an ascending or descending order after a negative or positive withdrawal response, respectively. Six consecutive responses from the first change in the response were used to calculate the withdrawal threshold (in grams). In cases where response thresholds fell outside the range of detection, 15.00 and 0.25 g were, respectively, assigned for continuous negative or positive responses to the limit of stimuli. The percent maximal possible effect (% MPE) was calculated as ([postdrug threshold−baseline threshold]/[cutoff threshold (15 g)−baseline threshold])×100.
(§2) Statistical analyses were carried out using BMDP 2007 (Statistical Solutions, Saugus, Mass., USA) and Graph Pad Prism (version 4.03; Graph Pad Software Inc., San Diego, Calif., USA). Data were analyzed using one-way ANOVA, repeated measures ANOVA, or t-test where appropriate. If ANOVA was significant, Tukey-Kramer post hoc analysis was used for multiple group comparison. Area under the curve (AUC) was calculated using the trapezoidal rule. The results are presented as mean±s.e. mean and were considered significant at P<0.05. Analyses of the dose-response curves and statistics were obtained using the pharmacologic software programs of Tallarida and Murray and included calculation of the ED50 values and their 95% confidence intervals (CI). Tallarida, R. J., et al., Manual of Pharmacologic Calculations With Computer Programs, Second ed. New York: Springer-Verlag, 1987.

Data set [2] has as its system paclitaxel-induced neuropathic pain model. As to the kind of experiment: animal or person. In kind it is in vivo, rat. The protocol: Groups of rats received daily i.p. injections of either vehicle or 1.0 mg/kg paclitaxel daily for four consecutive days for a final cumulative dose of 4 mg/kg; using an injection volume of 1 ml/kg. Polomano, R. C., et al., A Painful Peripheral Neuropathy in the Rat Produced by the Chemotherapeutic Drug, Paclitaxel, Pain, 2001, 94:293-304. The vehicle used in our experiments was the same vehicle used clinically for paclitaxel injections and is composed of a mixture of 10% saline and Cremophor EL® and […]. Baseline responses to mechanical stimulation of the hindpaw (see below) were established on day zero and continued daily until the development of neuropathy was confirmed.
as §1
To determine sensitivity to noxious heat, rats were placed in plexiglass enclosures on a transparent glass surface maintained at 30° C. and allowed to acclimate for 30 min. A thermal testing apparatus, consisting of a heat-emitting projector lamp and an electronic timer, was used. The device was activated after the lamp is placed directly beneath the planter surface of the hindpaw. The paw withdrawal latency in response to the radiant heat was recorded by a digital timer. A cutoff of 30 s was used to prevent potential tissue damage. After the baseline was measured, three groups of naïve rats (n=10) received 1.0, 3.0, or 10 mg/kg of the compound of Example 3 i.p. Response latencies were determined twice for each rat before drug injection and at 5, 10, 15, 30, 45, 60, 90 and 120 min after IP injection. The percent maximal possible effect (% MPE) was calculated as ([postdrug latency−baseline latency]/[cutoff time (30 s)−baseline latency])×100.
as §2

Data set [3] concerns the target T1, CB2 (Homo sapiens (Human), UniProt P34972). As to the kind of experiment: CB2 Binding Assay ([3H]WIN 55212-2, cell membrane homogenates). Conditions: for % Inhibition of Control Specific Binding / % of Control Specific Binding Mean / % of Control Specific Binding 1st / % of Control Specific Binding 2nd: CB2, test concentration 1.0E−05 (MD); for % of Control Specific Binding 1st: first replicate; for % of Control Specific Binding 2nd: second replicate. On the procedure: (§3) Cell membrane homogenates (15 μg protein) were incubated for 120 min at 37° C. with 0.8 nM [3H]WIN 55212-2 (the reference standard [Munro, 1993 #1321]) in the absence or presence of the test compound in a buffer containing 50 mM HEPES/Tris HCL (pH 7.4), 5 mM MgCl2, 2.5 mM EGTA, and 0.1% BSA. Nonspecific binding was determined in the presence of 10 μM WIN 55212-2. After being incubated, the samples were filtered rapidly under vacuum through glass fiber filters (GF/B; Packard) presoaked with 0.3% PEI and rinsed several times with ice-cold buffer containing 50 mM Tris HCl (pH 7.4) and 0.5% BSA using a 96-sample cell harvester (Unifilter; Packard). The filters were dried then counted for radioactivity in a scintillation counter (Topcount; Packard) using a scintillation cocktail (Microscint 0; Packard). The results were expressed as a percentage of the inhibition of the control radioligand-specific binding. The reference standard compounds were tested in each experiment at several concentrations to obtain a competition curve from which its IC50 was calculated.

Data set [4] addresses T2, CB1 (Homo sapiens (Human), UniProt P21554). As to the kind of experiment: CB1 Binding Assay ([3H]CP 55940, cell membrane homogenates). To be noted: for % Inhibition of Control Specific Binding / % of Control Specific Binding Mean / % of Control Specific Binding 1st / % of Control Specific Binding 2nd: CB1, test concentration 1.0E−05 (MD); for % of Control Specific Binding 1st: first replicate; for % of Control Specific Binding 2nd: second replicate. The protocol:
as §3, with “After” for “Cell membrane homogenates (15 μg protein) were incubated for 120 min at 37° C. with 0.8 nM [3H]WIN 55212-2 (the reference standard [Munro, 1993 #1321]) in the absence or presence of the test compound in a buffer containing 50 mM HEPES/Tris HCL (pH 7.4), 5 mM MgCl2, 2.5 mM EGTA, and 0.1% BSA. Nonspecific binding was determined in the presence of 10 μM WIN 55212-2. After”

The target of data set [5] is T1, CB2. As to the kind of experiment: CB1/CB2 Functional Assay (GTPγ[35S]), CB2 membranes. It counts as biochemical. The protocol:
(§4) A dose response curve was generated at eight concentrations in duplicate on CB1 and CB2 in light of reference agonists. The reference agonists for cannabinoid receptors was CP55,940. See FIGS. 1A, 1B, 2A, 2B, 3A and 3B.
(§5) Membranes (CB1, ES-110-MG or CB2, ES-111-MG) were mixed with GDP (volume:volume) and incubated for at least 15 min on ice. In parallel, GTPγ[^35S] were mixed with the beads (volume:volume) just before starting the reaction. The following reagents were successively added in the wells of an Optiplate: 50 μl of ligand, 20 μl of the membranes:GDP mix, 10 μl of assay buffer for agonist testing and 20 μl of the GTPγ[^35S]: beads mix. The plates were covered with a topseal, shaken on an orbital shaker for 2 min, and then incubated between 30 to 60 min. at room temperature. Then the plates were centrifuged for 10 min at 2000 rpm, incubated at room temperature between 1 to 4 hours and counted for 1 min with a PerkinElmer TopCount reader.

The target in data set [6] is T2, CB1. As to the kind of experiment: CB1/CB2 Functional Assay (GTPγ[35S]), CB1 membranes. In kind it is biochemical. On the procedure:
as §4, §5

T1 sequence (P34972 whole entry): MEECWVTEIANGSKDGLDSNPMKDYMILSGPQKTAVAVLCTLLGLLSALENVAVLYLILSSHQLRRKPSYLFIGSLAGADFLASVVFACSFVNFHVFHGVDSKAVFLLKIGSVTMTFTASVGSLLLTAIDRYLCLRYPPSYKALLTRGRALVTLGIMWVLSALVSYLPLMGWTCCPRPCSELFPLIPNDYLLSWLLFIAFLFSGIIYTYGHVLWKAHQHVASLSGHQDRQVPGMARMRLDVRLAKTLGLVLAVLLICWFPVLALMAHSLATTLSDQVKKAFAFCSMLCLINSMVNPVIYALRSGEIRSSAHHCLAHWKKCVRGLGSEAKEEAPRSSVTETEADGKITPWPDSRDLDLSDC
T2 sequence (P21554 whole entry): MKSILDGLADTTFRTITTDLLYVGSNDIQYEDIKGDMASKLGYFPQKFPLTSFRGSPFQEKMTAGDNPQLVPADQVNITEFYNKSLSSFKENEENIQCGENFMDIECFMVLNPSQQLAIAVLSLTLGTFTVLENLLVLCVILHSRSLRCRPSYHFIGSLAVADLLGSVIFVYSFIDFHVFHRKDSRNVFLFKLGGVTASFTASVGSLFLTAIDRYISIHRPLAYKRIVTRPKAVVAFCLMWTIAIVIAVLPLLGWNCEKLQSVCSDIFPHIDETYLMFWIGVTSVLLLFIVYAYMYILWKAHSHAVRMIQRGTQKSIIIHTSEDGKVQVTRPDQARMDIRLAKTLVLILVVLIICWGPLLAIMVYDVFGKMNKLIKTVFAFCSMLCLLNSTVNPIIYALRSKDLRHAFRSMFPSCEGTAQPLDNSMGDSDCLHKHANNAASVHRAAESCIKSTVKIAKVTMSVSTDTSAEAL

As for `Cc1c(C(=O)NN2CCCCC2)nn(-c2ccc(Cl)cc2Cl)c1-c1ccc(I)cc1` [AM251, reference compound], the “effect of antagonist alone on paw withdrawal threshold” value in data set [1] is recorded as “had no effect”.

For the compound `COc1ccc(C(=O)c2c(C)n(CCN3CCOCC3)c3cc(I)ccc23)cc1` [AM630, reference compound], the “effect of antagonist alone on paw withdrawal threshold” value in data set [1] was “had no effect”.

Take `CN1CCCCC1Cn1cc(C(=O)c2cc([N+](=O)[O-])ccc2I)c2ccccc21` (stereo not shown) [AM1241, reference compound]: the “effect on reversing thermal hyperalgesia compared with 15 mg/kg compound of Example 3 i.p.” value in data set [2] (5 mg/kg i.p.) is listed as “significantly less than”. In addition, the “antiallodynic effect versus vehicle” value in data set [1] (15 mg/kg i.p.) is given as “produced antiallodynic effects”. Moreover, the “effect of naloxone pretreatment on analgesic effects” value in data set [1] (AM1241 15 mg/kg i.p.) is reported as “significantly reversed”.

`CC1(Cc2ccccc2)COc2cc(C(=O)Nc3ccccc3I)ccc21` (stereo not shown) [Example 1, 3-Benzyl-3-methyl-2,3-dihydro-benzofuran-6-carboxylic acid (2-iodo-phenyl)-amide]: on CB2 [3], the “% Inhibition of Control Specific Binding” value is 23%, the “% of Control Specific Binding Mean” value is reported as 76.6%, the “% of Control Specific Binding 1st” value is 78.3% and the “% of Control Specific Binding 2nd” value was 74.8%. Also, on CB1 [4], the “% Inhibition of Control Specific Binding” value was determined as 14%, the “% of Control Specific Binding Mean” value was 85.5%, the “% of Control Specific Binding 1st” value was 85.7% and the “% of Control Specific Binding 2nd” value stood at 85.3%.

Consider `CC1(Cc2ccccc2)COc2cc(C(=O)NC3CCCCC3)ccc21` (stereo not shown) [Example 2, 3-Benzyl-3-methyl-2,3-dihydro-benzofuran-6-carboxylic acid cyclohexylamide], for which the “% Inhibition of Control Specific Binding” value at CB2 [3] is on record as 85%; at CB1 [4], 68%. Besides, the “% of Control Specific Binding Mean” value at CB2 [3] is listed as 14.9%; at CB1 [4] it was 31.8%. Further, the “% of Control Specific Binding 1st” value on CB2 [3] was found to be 21.3%; on CB1 [4] it was 29.9%. The “% of Control Specific Binding 2nd” value at CB2 [3] is on record as 8.6%; on CB1 [4], 33.8%. For the same compound, the “% Inhibition of Control Specific Binding CB2” value at CB2 [3] (as repeated in Table 4) was 85%. Also, the figures for the “Compound Function” value on CB2 [5] and on CB1 [6] were “Agonist” and “Inverse”, respectively. Moreover, the EC50 (as a rule, the concentration giving half of the maximal effect) on CB2 [5] (read-out: EC50 (nM) for GTP Binding) turned out to be 479 nM. Further, the results for the “% Activation Average” value at CB2 [5] (reference agonist CP55,940) and at CB1 [6] (reference agonist CP55,940) were 52.94% and −35.79%, respectively. Besides, the “% Inhibition of Control Specific Binding CB1” value at CB1 [4] (as repeated in Table 3) turned out to be 68%.

For `CC1(Cc2ccccc2)COc2ccc(C(=O)Nc3ccccc3I)cc21` (stereo not shown) [Example 4, 3-Benzyl-3-methyl-2,3-dihydro-benzofuran-5-carboxylic acid-o-iodoanilide], at CB2 [3], the “% Inhibition of Control Specific Binding” value was 15%, the “% of Control Specific Binding Mean” value is 84.7%, the “% of Control Specific Binding 1st” value is reported as 83.9% and the “% of Control Specific Binding 2nd” value is on record as 85.5%. For the same compound, on CB1 [4], the “% Inhibition of Control Specific Binding” value stood at 9%, the “% of Control Specific Binding Mean” value was determined as 90.5%, the “% of Control Specific Binding 1st” value came out at 85.9% and the “% of Control Specific Binding 2nd” value turned out to be 95.1%.

Regarding `CC1(Cc2ccccc2)COc2ccc(C(=O)N3CCCCC3)cc21` (stereo not shown) [Example 6, 3-benzyl-3-methyl-2,3-dihydrobenzofuran-5-carboxylic acid-piperidine amide], at CB2 [3], the “% Inhibition of Control Specific Binding” value worked out at 31%, the “% of Control Specific Binding Mean” value amounted to 69.4%, the “% of Control Specific Binding 1st” value is 71.6% and the “% of Control Specific Binding 2nd” value was 67.3%.

For the compound `C=CCN1CC[C@]23c4c5ccc(O)c4O[C@H]2C(=O)CC[C@@]3(O)[C@H]1C5` [naloxone, reference compound], in data set [1] (10 mg/kg i.p.), the “effect per se on paw withdrawal threshold” value was “did not affect paw withdrawal threshold”.

With `CC(=O)O[C@H]1C(=O)[C@@]2(C)[C@H]([C@H](OC(=O)c3ccccc3)[C@]3(O)C[C@H](OC(=O)[C@H](O)[C@@H](NC(=O)c4ccccc4)c4ccccc4)C(C)=C1C3(C)C)[C@]1(OC(C)=O)CO[C@@H]1C[C@@H]2O` [paclitaxel, reference compound], in data set [2] (rat, in vivo), the “paw withdrawal threshold to mechanical stimulation, left paw” value is 2.8 ± 0.15 g and the “paw withdrawal threshold to mechanical stimulation, right paw” value was 2.9 ± 0.19 g.
